The data set concerns human peripheral blood mononuclear cells (hPBMCs). The data set can be described thus: Cytotoxicity, MTT. Format: cell-based. As for the experimental part: The cytotoxicity of PvAMP66 was assessed in vitro against human red blood cells (hRBCs) and human peripheral blood mononuclear cells (hPBMCs) using concentrations of 1.56–200 µM. At the highest concentration, PvAMP66 induced 60% hemolysis in human erythrocytes (Figure 3a), and a decrease in viability of approximately 40% in the hPBMCs (Figure 3b). […] Ratios between CC50 or HC50, and the IC50 values registered for the bacterial strains, indicate that PvAMP66 has higher selectivity for interacting with prokaryotic membranes (Table 4).
Ten milliliters of fresh blood was mixed with 10 mL of PBS pH 7.20 in 50 mL conical tubes. Then, 10 mL of Ficoll® density gradient media were placed in 50 mL conical tubes, and then the blood/PBS solution was gently poured over without disturbing the interface. The mixture was centrifuged at RT and 400× g for 30 min with the brake off (Universal 32 R, Hettich Group, Kirchlengern, Westphalia, Germany), and the upper plasma phase was removed and discarded. The leukocyte phase was gently removed from the conical tube, placed in a new 50 mL conical tube, and density gradient media was removed in two washings with 25 mL of PBS pH 7.20 at RT and 400× g for 10 min. Cells were then resuspended in 3 mL of RPMI media. Subsequently, 10 µL of this suspension was mixed with 90 µL of Trypan blue in a 0.50 mL polypropylene vial. The cell count and cell viability were determined in a Neubauer counting chamber. Then, cells were suspended to 3 × 10^5 cells/mL, ensuring that cell viability remained above 98%. All peptides were diluted in RPMI media to final concentrations ranging between 1.56 and 200 µM. Subsequently, 20 µL of each peptide solution was added in triplicate into 96-well plates, along with 80 µL of fresh RPMI media. For negative and positive cytotoxicity controls, six wells received 20 µL of PBS and 30% v/v H2O2, respectively. Blank wells without cells were also included. Next, 100 µL of a cell suspension 3 × 10^5 cells/mL was added to each well, and the plates were incubated for 24 h at 37 °C in a 5% CO2 atmosphere (Heratherm, ThermoFisher Scientific, Waltham, MA, USA). After 24 h, plates were centrifuged at RT and 1000× g for 10 min (Sorvall Legend XFR, ThermoFisher Scientific, Waltham, MA, USA). Then, 180 µL of the supernatant was collected, and 28 µL of a 4 mg/mL sterile MTT solution was added. The plates were then incubated for 4 h at 37 °C in a 5% CO2 atmosphere (Heratherm, ThermoFisher Scientific, Waltham, MA, USA). After the second incubation, 130 µL of DMSO was added to each well and plates were agitated at 50 rpm. The solubilized formazan was then measured at 570 nm using a Multiskan SkyHigh spectrophotometer (ThermoFisher Scientific, Waltham, MA, USA). All peptides were evaluated in three independent assays and the viability percentages were calculated as follows: Viability %=1−AbsPEPTIDE−Median AbsBLANK/Median AbsH2O2−Median AbsBLANK×100

Ends that are not written are not given here.

As to WKKIKKFF-NH2 [PvAMP66], the “CC50 (Cytotoxic Concentration 50)” value (hPBMCs in RPMI, 24 h 37 °C 5% CO2, MTT 570 nm, 1.56–200 µM, logistic regression, 95% CI in parentheses, ND = above evaluated range) amounted to 172.03 µM. Where the note is “hPBMCs, highest concentration (200 µM), 24 h, MTT”, the decrease in viability result is “approximately 40%”. Also, the CC50/IC50 reads like this: (selectivity index vs IC50 E. coli ATCC 25922) 4.49; (selectivity index vs IC50 K. pneumoniae ATCC BAA-1705) 3.78; (selectivity index vs IC50 MDR K. pneumoniae) 10.89; (selectivity index vs IC50 P. aeruginosa ATCC 9027) 13.58; (selectivity index vs IC50 S. aureus ATCC 29213) 6.24.

The record behind these values is PMC10812672, “Short Antimicrobial Peptide Derived from the Venom Gland Transcriptome of Pamphobeteus verdolaga Increases Gentamicin Susceptibility of Multidrug-Resistant Klebsiella pneumoniae” (Antibiotics, 2023).
